Assay results reported in patent US20090074740A1, “Use of haptoglobin genotyping in diagnosis and treatment of defective reverse cholesterol transport (RCT)” (priority 2007, published 2009).
Where “and” joins values, the source holds several entries; their conditions need not be identical. Equal values may be shown once. Entries after “also recorded” stand apart in the source; their conditions may differ.

Legend:
[1] = per 1 mg, National Formulary; cited from earlier work
J774 macrophage cells = experiment: HDL-mediated cholesterol efflux from J774 cells incubated with purified HDL, native or glycated Hb and Hp; assay type: cell-based, murine; conditions: efflux with purified HDL taken as 100%; 0.8 umol/L; 3-hour incubation
Method: Cell Culture. J774 A.1 murine macrophage cells were purchased from the American Type Culture Collection (Manassas, Va.) and grown in DMEM supplemented with 5% FBS.
Cholesterol Efflux From Macrophages. Murine J774 cells (1×10^6/mL) were plated in 24-well plates for 48 hours, then washed and incubated in DMEM without serum containing ^3H-cholesterol (2 uCi/mL) for 1 hour. Cells were washed to remove unincorporated label and then incubated in 1 mL of DMEM supplemented with: (1) nothing (negative control); (2) purified HDL (100 ug/mL protein) (positive control); or (3) 30 uL of serum from individuals with or without DM with the different Hp genotypes. In studies using purified Hp and Hb rather than serum, the cells were incubated with purified HDL ([…] protein) with different combinations of native Hb, glycated Hb, Hp1-1, and Hp2-2 (all at 0.8 umol/L).
After a 3-hour incubation at 37° C. to permit efflux of ^3H-cholesterol from the cells into the medium, 500 uL of the medium was collected, the cells washed with PBS, and 0.1 N NaOH added to the cells. Cellular and medium ^3H-cholesterol were determined by liquid scintillation counting (LSC). The percentage of cholesterol efflux was calculated as the ratio of total counts per minute in the medium divided by the total counts per minute in the medium and in the cells. HDL-mediated cholesterol efflux (resulting from purified HDL or HDL found in the serum) was calculated after subtraction of the nonspecific efflux obtained in cells incubated in the absence of purified HDL or serum. Results reported for efflux elicited by serum samples are normalized for the serum HDL concentration derived as (measured efflux)(measured HDL in mg/dL)/50.

HDL associated lipids = experiment: Measurement of HDL-associated lipid peroxides; assay type: biochemical, human; conditions: Hb 1 umol/L, 100 ug HDL
Method: Measurement of HDL-Associated Lipid Peroxides. Glycosylated or nonglycosylated Hb (1 umol/L) was incubated with 100 ug of HDL and 20 umol/L ascorbic acid in PBS with or without Hp1-1 or Hp2-2 (equimolar to Hb) for 3 hours at 37° C. Lipid peroxides were measured as previously described.

J774 macrophages = experiment: Cholesterol efflux from J774 macrophages elicited by serum from Hp 2-2 DM mice treated with vitamin E; assay type: in vivo; conditions: 40 mg/kg/day beginning three weeks after induction of DM, serum on J774 cells
Description: (§1) Hp transgenic mice and veneration of DM. All protocols were approved by the Animal Care and Use Committee of the Technion. […]. The characterization and generation of Hp 1 and Hp 2 mice in a C57B1/6 genetic background has previously been described in detail. Briefly, the murine Hp 1 allele is the wild type murine Hp allele. The Hp 2 allele exists only in man and a murine Hp 2 allele was genetically engineered in vitro and its insertion targeted at the Hp locus by homologous recombination. […] Diabetes was generated in these mice at 8 weeks of age using a low dose streptozotocin protocol (NIH Funded Consortium on Animal Models of Diabetic Complications protocol available on the consortium web site www.amdcc.org) and confirmed by measuring plasma glucose. Mice were diabetic for at least 1 month prior to analysis.
(§2) Vitamin E (racemic, alpha-tocopherol acetate, Merck) was administered to a subset of the Hp 2-2 DM mice at a dose of 40 mg/kg/day beginning three weeks after the induction of DM.

[2] = ICARE study: vitamin E versus placebo in Hp 2-2 Type II DM individuals (MI, stroke, CVD death); assay type: in vivo, human
Description: The study protocol of the ICARE study involves the following: participants were drawn from 47 primary health clinics of the Clalit Health Services in the northern sector of Israel. Patients were eligible for the study if they had Type II DM and were 55 years of age or older. […] These Hp 2-2 individuals were randomly assigned to treatment with either vitamin E or placebo. The major study outcomes (MI, stroke, CVD death) were identified prospectively in this population over an 18 month period. A preplanned secondary analysis of ICARE was to assess the ability of vitamin E therapy to influence outcomes in those ICARE participants who were also taking statins. Statin use as prospectively defined in ICARE was based on the use of statins by the participant in at least eight of the twelve months preceding enrollment of the participant in the study. The decision to use statins for a particular participant was under the discretion of the patient's primary care physician and was in no way influenced by the patient's participation in the ICARE study.
Robust clinical data has shown that individuals homozygous for the Hp 2 allele (Hp 2-2 genotype), 40% of DM individuals, have an up to 500% increased risk of CVD (21-24). A vast amount of basic science, animal and epidemiological data has provided the logic for targeting vitamin E administration specifically to DM individuals with the Hp 2-2 genotype. In the ICARE study (Israel CArdiovascular events Reduction with vitamin E (ClinicalTrials.gov# NCT00220831)) a prospective randomized placebo controlled trial of vitamin E therapy in DM individuals with the Hp 2-2 genotype, is was shown that vitamin E therapy results in a 50% reduction in CVD events. However, only about half of the Hp 2-2 DM participants in ICARE received statin therapy.

[3] = Glucose control and lipid profile in Hp 2-2 DM mice given vitamin E; assay type: in vivo; conditions: 40 mg/kg/day
Description: as §1, §2

Molecule: CC(=O)Oc1c(C)c(C)c2c(c1C)CCC(C)(CCCC(C)CCCC(C)CCCC(C)C)O2 (racemic) [all-rac-α-tocopherol acetate]
- specific activity of 1 mg [1]: 1.00 IU

Molecule: glycated Hb: Human hemoglobin glycated in vitro using glycolaldehyde
- reduction in HDL-mediated cholesterol efflux (J774 macrophage cells): 35% and 34±3%
- increase in HDL-associated lipid peroxides (HDL associated lipids; 20 umol/L ascorbic acid, 3 hours at 37 C, mean of 2 independent experiments): 142.3 nmol of lipid peroxide per milligram of HDL

Molecule: CC(=O)Oc1c(C)c(C)c2c(c1C)CC[C@@](C)(CCC[C@H](C)CCC[C@H](C)CCCC(C)C)O2 [RRR-.alpha-tocopherol acetate]
- specific activity of 1 mg [1]: 1.36 IU

Molecule: Cc1c(C)c2c(c(C)c1O)CCC(C)(CCCC(C)CCCC(C)CCCC(C)C)O2 (racemic) [all-rac-.alpha-tocopherol]
- specific activity of 1 mg [1]: 1.10 IU

Molecule: Cc1c(C)c2c(c(C)c1O)CC[C@@](C)(CCC[C@H](C)CCC[C@H](C)CCCC(C)C)O2 [RRR-.alpha-tocopherol]
- specific activity of 1 mg [1]: 1.49 IU

Molecule: CC(=O)Oc1c(C)c(C)c2c(c1C)CCC(C)(CCC[C@H](C)CCC[C@H](C)CCCC(C)C)O2 (mixture of isomers) [vitamin E, alpha-tocopherol acetate]
- effect on the impairment in cholesterol efflux produced by DM in Hp 2 mice (J774 macrophages): prevented; also recorded: prevent the impairment in efflux
- effect on the impairment in cholesterol efflux produced by DM in Hp 2 mice (J774 macrophages; listed as Vitamin E): prevent the impairment in efflux
- reduction in CVD events ([2]; DM individuals with the Hp 2-2 genotype, ICARE overall): 50%
- event rate (MI, stroke, CVD death) ([2]; Hp 2-2 DM individuals taking statins in at least eight of the twelve months before enrollment, 18 month period): 1.3%
- event rate (MI, stroke, CVD death) ([2]; Hp 2-2 DM individuals taking statins in at least one of the twelve months before enrollment): 1.7%
- hazard ratio [HR] versus placebo ([2]; Hp 2-2 DM individuals taking statins, 95% CI 0.15-0.83): 0.31
- effect on glucose control [3]: no effect
- effect on the lipid profile [3]: no effect

Molecule: native Hb: Native hemoglobin isolated from fresh human blood
- effect on HDL-mediated efflux of 3H-cholesterol (J774 macrophage cells): did not cause any reduction; also recorded: no effect
- increase in HDL-associated lipid peroxides (HDL associated lipids; 3 hours): no increase

B1: Haptoglobin: Highly conserved plasma glycoprotein, the major protein that binds free hemoglobin (protein, UniProt P00738 19-406, looked up)
Haptoglobin: VDSGNDVTDIADDGCPKPPEIAHGYVEHSVRYQCKNYYKLRTEGDGVYTLNDKKQWINKAVGDKLPECEADDGCPKPPEIAHGYVEHSVRYQCKNYYKLRTEGDGVYTLNNEKQWINKAVGDKLPECEAVCGKPKNPANPVQRILGGHLDAKGSFPWQAKMVSHHNLTTGATLINEQWLLTTAKNLFLNHSENATAKDIAPTLTLYVGKKQLVEIEKVVLHPNYSQVDIGLIKLKQKVSVNERVMPICLPSKDYAEVGRVGYVSGWGRNANFKFTDHLKYVMLPVADQDQCIRHYEGSTVPEKKTPKSPVGVQPILNEHTFCAGMSKYQEDTCYGDAGSAFAVHDLEEDTWYATGILSFDKSCAVAEYGVYVKVTSIQDWVQKTIAEN
- effect on HDL-mediated efflux of 3H-cholesterol (J774 macrophage cells): no effect
